# Test results from ChEMBL document CHEMBL3785076, “Disposition of valproic acid in man” (Eur J Clin Pharmacol, 1977).
# Legend:
# [1] = Plasma concentration in healthy human subjects (6 subjects) at 600 mg, po administered as single enteric-coated compound dose measured after 2 hrs by GLC method; type: ADME, organism-based
# [2] = Plasma concentration in healthy human subjects (6 subjects) at 600 mg, po administered as single enteric-coated compound dose measured after 3 hrs by GLC method; type: ADME, organism-based
# [3] = Plasma concentration in healthy human subjects (6 subjects) at 600 mg, po administered as single enteric-coated compound dose measured after 4 hrs by GLC method; type: ADME, organism-based
# [4] = Plasma concentration in healthy human subjects (6 subjects) at 600 mg, po administered as single enteric-coated compound dose measured after 6 hrs by GLC method; type: ADME, organism-based
# [5] = Plasma concentration in healthy human subjects (6 subjects) at 600 mg, po administered as single enteric-coated compound dose measured after 10 hrs by GLC method; type: ADME, organism-based
# [6] = Plasma concentration in healthy human subjects (6 subjects) at 600 mg, po administered as single enteric-coated compound dose measured after 24 hrs by GLC method; type: ADME, organism-based
# [7] = Plasma concentration in healthy human subjects (6 subjects) at 600 mg, po administered as single enteric-coated compound dose measured after 30 hrs by GLC method; type: ADME, organism-based
# [8] = Plasma concentration in healthy human subjects (6 subjects) at 600 mg, po administered as single enteric-coated compound dose measured after 48 hrs by GLC method; type: ADME, organism-based
# [9] = Plasma concentration in healthy human subjects (6 subjects) at 600 mg, po administered as single enteric-coated compound dose measured after 72 hrs by GLC method; type: ADME, organism-based
# Homo sapiens [10] = experiment: Drug lag time in healthy human subjects (6 subjects) at 600 mg, po administered as single enteric-coated compound dose measured by GLC method; type: ADME, organism-based; details: in vivo
# [11] = Tmax in healthy human subjects (6 subjects) at 600 mg, po administered as single enteric-coated compound dose measured by GLC method; type: ADME, organism-based; details: in vivo
# [12] = Elimination rate constant during beta-phase in healthy human subjects (6 subjects) at 600 mg, po administered as single enteric-coated compound dose measured by GLC method; type: ADME, organism-based; details: in vivo
# [13] = Terminal half life in healthy human subjects (6 subjects) at 600 mg, po administered as single enteric-coated compound dose measured by GLC method; type: ADME, organism-based; details: in vivo, read-out: beta t1/2 (converted)
# [14] = AUC in healthy human subjects (6 subjects) at 600 mg, po administered as single enteric-coated compound dose measured by GLC method; type: ADME, organism-based; details: in vivo
# Homo sapiens [15] = experiment: Apparent volume of distribution in healthy human subjects (6 subjects) at 600 mg, po administered as single enteric-coated compound dose measured by GLC method; type: ADME, organism-based; details: in vivo
# [16] = Total plasma clearance in healthy human subjects (6 subjects) at 600 mg, po administered as single enteric-coated compound dose measured by GLC method; type: ADME, organism-based
# Homo sapiens [17] = experiment: Mean steady state plasma concentration in healthy human subjects (6 subjects) at 1200 mg, po for 12 days administered as enteric-coated compound dose by GLC method; type: ADME, organism-based; details: in vivo, 288 h
# [18] = Steady state plasma concentration before morning dose in healthy human subjects (6 subjects) at 1200 mg, po for 12 days administered as enteric-coated compound dose by GLC method; type: ADME, organism-based; details: read-out: Cpss
# [19] = Half life at steady state in healthy human subjects (6 subjects) at 1200 mg, po for 12 days administered as enteric-coated compound dose by GLC method; type: ADME, organism-based; details: in vivo, read-out: t1/2ss (converted)
# [20] = Plasma protein binding in healthy human subjects (6 subjects) measured under steady state conditions by equilibrium dialysis method; type: ADME, cell-free; details: read-out: PPB (converted)
# [21] = Plasma protein binding in healthy human subjects (6 subjects) assessed as unbound fraction level measured under steady state conditions by equilibrium dialysis method; type: ADME, cell-free
# [22] = Drug concentration in saliva of healthy human subjects (6 subjects) at 600 mg, po administered as single enteric-coated compound; type: ADME, organism-based; details: in vivo
# [23] = Drug concentration in saliva of healthy human subjects (6 subjects) at 1200 mg, po for 12 days administered as enteric-coated compound dose measured under steady state conditions by GLC method relative to plasma drug level; type: ADME, organism-based; details: in vivo, 288 h
# [24] = Ratio of urinary excretion of valproic acid to urinary excretion of VPA-conjugates in healthy human subjects (6 subjects) at 600 mg, po administered as single enteric-coated compound; type: ADME, organism-based, Urine; details: in vivo
# [25] = Ratio of urinary excretion of valproic acid to urinary excretion of VPA-conjugates in healthy human subjects (6 subjects) at 1200 mg, po for 12 days administered as enteric-coated compound dose measured during 24 hrs relative to total drug excretion; type: ADME, organism-based, Urine; details: in vivo
# [26] = Half life in human measured over 24 hrs; type: ADME, organism-based; details: in vivo
compound,measurement,setting,value
CCCC(CCC)C(=O)[O-].[Na+] [VALPROATE SODIUM],concentration at 2 h,[1],10300 ng/mL
same,concentration at 3 h,[2],42800 ng/mL
same,concentration at 4 h,[3],58100 ng/mL
same,concentration at 6 h,[4],53200 ng/mL
same,concentration at 10 h,[5],38400 ng/mL
same,concentration at 24 h,[6],17600 ng/mL
same,concentration at 30 h,[7],14000 ng/mL
same,concentration at 48 h,[8],6500 ng/mL
same,concentration at 72 h,[9],2500 ng/mL
same,Tlag,Homo sapiens [10],1.3 h
same,Tmax,[11],3.7 h
same,k el,[12],1.25e-05 s⁻¹
same,half-life,[13],15.9 h
same,AUC,[14],1210 µg·h/mL
same,Vbeta,Homo sapiens [15],0.15 L/kg
same,CL/F,[16],0.107 mL/min/kg
same,Cpss,Homo sapiens [17],81.3 µg/mL
same,concentration at 288 h,[18],75300 ng/mL
same,half-life,[19],17.3 h
same,fraction unbound,[20],0.067
same,fraction unbound,[21],0.067
same,Drug uptake,[22],< 0.5 µg/mL
same,Drug uptake,[23],1.3%
same,Ratio,[24],0.158
same,Ratio,[25],1.127
same,half-life,[26],8 h
